Results taken from publication PMC6409085, “Three odorant-binding proteins are involved in the behavioral response of Sogatella furcifera to rice plant volatiles” (PeerJ, 2019).
Values joined by “and” are separate entries in the source; they are usually repeats but may differ in a detail not shown here. Identical values can stand only once.

Key:
SfurOBP2 = SfurOBP2 (Sogatella furcifera, UniProt V5T759); assay: biochemical; assay type: binding
Method in brief: (§1)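 Protein 2.0 µM + 1-NPN 2.0 µM, 50 mM Tris-HCl pH 7.4; competitor odorants 2, 4 … 20 µM final; read 2 min post-addition, ex 337/em 390–490 nm; n=3. K1-NPN from 1-NPN titration/Scatchard; Ki from IC50 corrected for free 1-NPN.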

SfurOBP11 = SfurOBP11 (Sogatella furcifera, UniProt V5T6E3); assay: biochemical; assay type: binding
Chain of SfurOBP11 (V5T6E3 entry or part of it): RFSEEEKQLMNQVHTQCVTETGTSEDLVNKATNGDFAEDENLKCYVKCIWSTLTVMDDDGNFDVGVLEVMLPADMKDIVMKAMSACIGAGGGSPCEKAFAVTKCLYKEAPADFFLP
Method in brief: as §1

SfurOBP3 = SfurOBP3 (Sogatella furcifera, UniProt V5T818); assay: biochemical; assay type: binding; conditions: for Fluorescence competitive binding assay, fluorescence intensity: OBP3, three replicate columns
Chain of SfurOBP3 (V5T818 entry or part of it): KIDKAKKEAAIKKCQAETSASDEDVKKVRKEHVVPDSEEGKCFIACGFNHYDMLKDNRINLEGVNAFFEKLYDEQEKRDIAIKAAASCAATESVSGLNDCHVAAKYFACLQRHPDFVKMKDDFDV
Method in brief: as §1

SfurOBP1 = SfurOBP1 (Sogatella furcifera, UniProt V5T8N5); assay: biochemical; assay type: binding; conditions: for Fluorescence competitive binding assay, fluorescence intensity: OBP1, three replicate columns
Chain of SfurOBP1 (V5T8N5 entry or part of it): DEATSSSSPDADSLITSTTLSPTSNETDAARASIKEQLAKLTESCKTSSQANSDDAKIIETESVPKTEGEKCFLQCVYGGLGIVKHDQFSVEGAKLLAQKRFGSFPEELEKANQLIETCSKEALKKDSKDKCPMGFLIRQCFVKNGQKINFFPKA
Method in brief: as §1

S. furcifera adults = assay: Y-tube olfactometer behavioral trials; assay type: in vivo, Sogatella furcifera; conditions: odorant 50 µL/L vs hexane; adults
Method in brief: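 Single S. furcifera adults (2 days post-emergence, starved 0.5 h) chose between odorant (100 µL of 50 µL/L on filter paper) and hexane control in a glass Y-tube, charcoal-filtered humidified air 300 mL/min per arm, 25 ± 1 °C, 50% RH. Choice scored if insect passed half an arm and stayed >1 min within 10 min; 45 insects per compound, chi-squared test.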

Chain of SfurOBP2 (V5T759 entry or part of it): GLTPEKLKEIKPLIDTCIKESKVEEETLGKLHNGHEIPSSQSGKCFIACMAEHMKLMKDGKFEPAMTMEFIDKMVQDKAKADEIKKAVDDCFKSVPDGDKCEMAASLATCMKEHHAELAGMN

CCCCCCCCC=O [nonanal]
IC50 (SfurOBP2; SfurOBP2, protein and 1-NPN both 2.0 µM, competitor 2-20 µM, read-out: IC50): > 20 µM
Fluorescence competitive binding assay, OBP2 (raw fluorescence reading) (SfurOBP2; ligand concentration 2 (unit not given), replicate column 1 of 3): 22495
Fluorescence competitive binding assay, OBP2 (raw fluorescence reading) (SfurOBP2; ligand concentration 2 (unit not given), replicate column 2 of 3): 22840
Fluorescence competitive binding assay, OBP2 (raw fluorescence reading) (SfurOBP2; ligand concentration 2 (unit not given), replicate column 3 of 3): 21233
Fluorescence competitive binding assay, OBP2 (raw fluorescence reading) (SfurOBP2; ligand concentration 4 (unit not given), replicate column 1 of 3): 23391
Fluorescence competitive binding assay, OBP2 (raw fluorescence reading) (SfurOBP2; ligand concentration 4 (unit not given), replicate column 2 of 3): 22604
Fluorescence competitive binding assay, OBP2 (raw fluorescence reading) (SfurOBP2; ligand concentration 4 (unit not given), replicate column 3 of 3): 23347
Fluorescence competitive binding assay, OBP2 (raw fluorescence reading) (SfurOBP2; ligand concentration 6 (unit not given), replicate column 1 of 3): 22973
Fluorescence competitive binding assay, OBP2 (raw fluorescence reading) (SfurOBP2; ligand concentration 6 (unit not given), replicate column 2 of 3): 22972
Fluorescence competitive binding assay, OBP2 (raw fluorescence reading) (SfurOBP2; ligand concentration 6 (unit not given), replicate column 3 of 3): 22119
Fluorescence competitive binding assay, OBP2 (raw fluorescence reading) (SfurOBP2; ligand concentration 8 (unit not given), replicate column 1 of 3): 20829
Fluorescence competitive binding assay, OBP2 (raw fluorescence reading) (SfurOBP2; ligand concentration 8 (unit not given), replicate column 2 of 3): 21110
Fluorescence competitive binding assay, OBP2 (raw fluorescence reading) (SfurOBP2; ligand concentration 8 (unit not given), replicate column 3 of 3): 19166
Fluorescence competitive binding assay, OBP2 (raw fluorescence reading) (SfurOBP2; ligand concentration 10 (unit not given), replicate column 1 of 3): 18739
Fluorescence competitive binding assay, OBP2 (raw fluorescence reading) (SfurOBP2; ligand concentration 10 (unit not given), replicate column 2 of 3): 19572
Fluorescence competitive binding assay, OBP2 (raw fluorescence reading) (SfurOBP2; ligand concentration 10 (unit not given), replicate column 3 of 3): 20059
Fluorescence competitive binding assay, OBP2 (raw fluorescence reading) (SfurOBP2; ligand concentration 12 (unit not given), replicate column 1 of 3): 18220
Fluorescence competitive binding assay, OBP2 (raw fluorescence reading) (SfurOBP2; ligand concentration 12 (unit not given), replicate column 2 of 3): 17338
Fluorescence competitive binding assay, OBP2 (raw fluorescence reading) (SfurOBP2; ligand concentration 12 (unit not given), replicate column 3 of 3): 19313
Fluorescence competitive binding assay, OBP2 (raw fluorescence reading) (SfurOBP2; ligand concentration 14 (unit not given), replicate column 1 of 3): 18807
Fluorescence competitive binding assay, OBP2 (raw fluorescence reading) (SfurOBP2; ligand concentration 14 (unit not given), replicate column 2 of 3): 18093
Fluorescence competitive binding assay, OBP2 (raw fluorescence reading) (SfurOBP2; ligand concentration 14 (unit not given), replicate column 3 of 3): 18015
Fluorescence competitive binding assay, OBP2 (raw fluorescence reading) (SfurOBP2; ligand concentration 16 (unit not given), replicate column 1 of 3): 15898
Fluorescence competitive binding assay, OBP2 (raw fluorescence reading) (SfurOBP2; ligand concentration 16 (unit not given), replicate column 2 of 3): 17144
Fluorescence competitive binding assay, OBP2 (raw fluorescence reading) (SfurOBP2; ligand concentration 16 (unit not given), replicate column 3 of 3): 15877
Fluorescence competitive binding assay, OBP2 (raw fluorescence reading) (SfurOBP2; ligand concentration 18 (unit not given), replicate column 1 of 3): 16375
Fluorescence competitive binding assay, OBP2 (raw fluorescence reading) (SfurOBP2; ligand concentration 18 (unit not given), replicate column 2 of 3): 13674
Fluorescence competitive binding assay, OBP2 (raw fluorescence reading) (SfurOBP2; ligand concentration 18 (unit not given), replicate column 3 of 3): 18894
Fluorescence competitive binding assay, OBP2 (raw fluorescence reading) (SfurOBP2; ligand concentration 20 (unit not given), replicate column 1 of 3): 16296
Fluorescence competitive binding assay, OBP2 (raw fluorescence reading) (SfurOBP2; ligand concentration 20 (unit not given), replicate column 2 of 3): 16765
Fluorescence competitive binding assay, OBP2 (raw fluorescence reading) (SfurOBP2; ligand concentration 20 (unit not given), replicate column 3 of 3): 17962
IC50 (SfurOBP11; SfurOBP11, protein and 1-NPN both 2.0 µM, competitor 2-20 µM, read-out: IC50): > 20 µM
Fluorescence intensity, fluorescence competitive binding assay, OBP11 (SfurOBP11; ligand concentration 2, replicate 1): 31191
Fluorescence intensity, fluorescence competitive binding assay, OBP11 (SfurOBP11; ligand concentration 2, replicate 2): 27026
Fluorescence intensity, fluorescence competitive binding assay, OBP11 (SfurOBP11; ligand concentration 2, replicate 3): 27251
Fluorescence intensity, fluorescence competitive binding assay, OBP11 (SfurOBP11; ligand concentration 4, replicate 1): 33062
Fluorescence intensity, fluorescence competitive binding assay, OBP11 (SfurOBP11; ligand concentration 4, replicate 2): 32235
Fluorescence intensity, fluorescence competitive binding assay, OBP11 (SfurOBP11; ligand concentration 4, replicate 3): 30749
Fluorescence intensity, fluorescence competitive binding assay, OBP11 (SfurOBP11; ligand concentration 6, replicate 1): 33680
Fluorescence intensity, fluorescence competitive binding assay, OBP11 (SfurOBP11; ligand concentration 6, replicate 2): 31560
Fluorescence intensity, fluorescence competitive binding assay, OBP11 (SfurOBP11; ligand concentration 6, replicate 3): 31826
Fluorescence intensity, fluorescence competitive binding assay, OBP11 (SfurOBP11; ligand concentration 8, replicate 1): 29344
Fluorescence intensity, fluorescence competitive binding assay, OBP11 (SfurOBP11; ligand concentration 8, replicate 2): 31482
Fluorescence intensity, fluorescence competitive binding assay, OBP11 (SfurOBP11; ligand concentration 8, replicate 3): 30513
Fluorescence intensity, fluorescence competitive binding assay, OBP11 (SfurOBP11; ligand concentration 10, replicate 1): 29393
Fluorescence intensity, fluorescence competitive binding assay, OBP11 (SfurOBP11; ligand concentration 10, replicate 2): 28581
Fluorescence intensity, fluorescence competitive binding assay, OBP11 (SfurOBP11; ligand concentration 10, replicate 3): 27079
Fluorescence intensity, fluorescence competitive binding assay, OBP11 (SfurOBP11; ligand concentration 12, replicate 1): 26945
Fluorescence intensity, fluorescence competitive binding assay, OBP11 (SfurOBP11; ligand concentration 12, replicate 2): 26618
Fluorescence intensity, fluorescence competitive binding assay, OBP11 (SfurOBP11; ligand concentration 12, replicate 3): 27193
Fluorescence intensity, fluorescence competitive binding assay, OBP11 (SfurOBP11; ligand concentration 14, replicate 1): 24856
Fluorescence intensity, fluorescence competitive binding assay, OBP11 (SfurOBP11; ligand concentration 14, replicate 2): 26161
Fluorescence intensity, fluorescence competitive binding assay, OBP11 (SfurOBP11; ligand concentration 14, replicate 3): 27383
Fluorescence intensity, fluorescence competitive binding assay, OBP11 (SfurOBP11; ligand concentration 16, replicate 1): 23278
Fluorescence intensity, fluorescence competitive binding assay, OBP11 (SfurOBP11; ligand concentration 16, replicate 2): 23147
Fluorescence intensity, fluorescence competitive binding assay, OBP11 (SfurOBP11; ligand concentration 16, replicate 3): 23455
Fluorescence intensity, fluorescence competitive binding assay, OBP11 (SfurOBP11; ligand concentration 18, replicate 1): 27255
Fluorescence intensity, fluorescence competitive binding assay, OBP11 (SfurOBP11; ligand concentration 18, replicate 2): 25416
Fluorescence intensity, fluorescence competitive binding assay, OBP11 (SfurOBP11; ligand concentration 18, replicate 3): 25774
Fluorescence intensity, fluorescence competitive binding assay, OBP11 (SfurOBP11; ligand concentration 20, replicate 1): 25007
Fluorescence intensity, fluorescence competitive binding assay, OBP11 (SfurOBP11; ligand concentration 20, replicate 2): 22862
Fluorescence intensity, fluorescence competitive binding assay, OBP11 (SfurOBP11; ligand concentration 20, replicate 3): 22028
Fluorescence competitive binding assay, fluorescence intensity (SfurOBP3; ligand concentration 2): 61166 and 61638 and 64447
Fluorescence competitive binding assay, fluorescence intensity (SfurOBP3; ligand concentration 4): 63416 and 64552 and 59405
Fluorescence competitive binding assay, fluorescence intensity (SfurOBP3; ligand concentration 6): 55740 and 58561 and 59455
Fluorescence competitive binding assay, fluorescence intensity (SfurOBP3; ligand concentration 8): 58358 and 53959 and 58376
Fluorescence competitive binding assay, fluorescence intensity (SfurOBP3; ligand concentration 10): 51490 and 57535 and 53641
Fluorescence competitive binding assay, fluorescence intensity (SfurOBP3; ligand concentration 12): 51816 and 53317 and 52476
Fluorescence competitive binding assay, fluorescence intensity (SfurOBP3; ligand concentration 14): 50240 and 49815 and 48142
Fluorescence competitive binding assay, fluorescence intensity (SfurOBP3; ligand concentration 16): 46199 and 48600 and 42686
Fluorescence competitive binding assay, fluorescence intensity (SfurOBP3; ligand concentration 18): 47759 and 45050 and 48665
Fluorescence competitive binding assay, fluorescence intensity (SfurOBP3; ligand concentration 20): 47298 and 41425 and 41649
IC50 (SfurOBP3; SfurOBP3, protein and 1-NPN both 2.0 µM, competitor 2-20 µM, read-out: IC50): > 20 µM
Fluorescence competitive binding assay, fluorescence intensity (SfurOBP1; ligand concentration 2 (μM)): 7802 and 7217 and 8367
Fluorescence competitive binding assay, fluorescence intensity (SfurOBP1; ligand concentration 4 (μM)): 10256 and 8383 and 7448
Fluorescence competitive binding assay, fluorescence intensity (SfurOBP1; ligand concentration 6 (μM)): 7755 and 7709 and 7657
Fluorescence competitive binding assay, fluorescence intensity (SfurOBP1; ligand concentration 8 (μM)): 8353 and 6725 and 6896
Fluorescence competitive binding assay, fluorescence intensity (SfurOBP1; ligand concentration 10 (μM)): 7309 and 7612 and 6541
Fluorescence competitive binding assay, fluorescence intensity (SfurOBP1; ligand concentration 12 (μM)): 7182 and 6932 and 8389
Fluorescence competitive binding assay, fluorescence intensity (SfurOBP1; ligand concentration 14 (μM)): 7695 and 6348 and 8106
Fluorescence competitive binding assay, fluorescence intensity (SfurOBP1; ligand concentration 16 (μM)): 7645 and 7087 and 7719
Fluorescence competitive binding assay, fluorescence intensity (SfurOBP1; ligand concentration 18 (μM)): 9286 and 8583 and 8604
Fluorescence competitive binding assay, fluorescence intensity (SfurOBP1; ligand concentration 20 (μM)): 13401 and 7898 and 7495
IC50 (SfurOBP1; SfurOBP1, protein and 1-NPN both 2.0 µM, competitor 2-20 µM, read-out: IC50): > 20 µM
number of insects choosing hexane arm (S. furcifera adults): 12
number of insects choosing volatilies arm (S. furcifera adults): 17
number of insects failed (no choice) (S. furcifera adults): 11
